This is an account of results in article PMC10216263, “Favorable Preclinical Pharmacological Profile of a Novel Antimalarial Pyrrolizidinylmethyl Derivative of 4-amino-7-chloroquinoline with Potent In Vitro and In Vivo Activities” (Biomolecules, 2023).

Usually IC50 stands for the concentration at which inhibition is half-maximal.

Read-outs that look alike come from different tables or passages of the source.

For data set [1] the following is noted: cited from earlier work.
In data set [2] the test system is Pf-3D7 gametocytes >95% Stage V. Kind of data set: Gametocyte luciferase assay (3D7elo1-pfs16-CBG99). The class given is cell-based, P. falciparum. The note with it: Plasmodium falciparum, 3D7, read-out: Pf-3D7 gametocytes IC50 (nM), >95% Stage V. The protocol:
(§1) In vitro activity of MG3 against P falciparum sexual gametocyte stages […]
(§2) luminescent transgenic 3D7 strain (3D7elo1-pfs16-CBG99) at two different stages (I-III and V) using the […]
(§3) Briefly, 100 µL of culture medium were removed from each well to increase hematocrit; 70 µL of resuspended culture were transferred to a black 96-well plate; 70 µL of D-luciferin (1 mM in citrate buffer 0.1 M, pH 5.5) were added. Luminescence measurements were performed after 10 min with 500 ms integration time using a Synergy4-BioTek reader.
(§4) (1 picture or pasted object on this page, not shown here)

The subject of data set [3] is Pf-3D7 gametocytes >95% Stage I-III. Kind of data set: Gametocyte luciferase assay (3D7elo1-pfs16-CBG99). The class given is cell-based, P. falciparum. The note with it: Plasmodium falciparum. The method, then:
as §1, §2, §3, §4

Data set [4] relates to P. falciparum V1-S (CQ-R). The experiment in a line: In vitro antimalarial activity, [3H]-hypoxanthine incorporation (LSHTM). The class given is cell-based. The settings on record: Plasmodium falciparum, read-out: P. falciparum IC50 nM, V1-S (CQ-R).
Data set [5] relates to P. falciparum TM90C2A (CQ-R). The data set is described as above. The class given is cell-based. The settings on record: Plasmodium falciparum, read-out: P. falciparum IC50 nM, TM90C2A (CQ-R).
The test system of data set [6] is P. falciparum K1 (CQ-R). The description is as above. The settings on record: Plasmodium falciparum. The format is cell-based.
The test system of data set [7] is P. falciparum K1 (CQ-R). The experiment in a line: In vitro combination study (isobologram, ∑FIC). The class given is cell-based.
In another data set the test system is P. vivax field isolates. Kind of data set: Chemosensitivity assay on field isolates. The note with it: Plasmodium vivax, read-out: P. vivax IC50 nM, Field Isolates. The format is cell-based. The method, then:
(§5) The 10 P. vivax and 10 P. falciparum isolates used in this study were obtained from Mae Sod District, Tak Province, Thailand. […] Isolates were collected in 5 mL lithium-heparinized tubes and sent to the laboratory within 5–6 h.

The subject of data set [8] is P. falciparum field isolates. Kind of data set: Chemosensitivity assay on field isolates. The class given is cell-based. The settings on record: Plasmodium falciparum. The protocol:
as §5

For another data set, the system named is P. falciparum D10 (CQ-S). Details: method as in PMID 18538567. The settings on record: 72 h incubation, pLDH method, mean of 3 experiments; cited from earlier work.
Another data set has as its system P. falciparum 3D7 (CQ-S). Kind of data set: In vitro antimalarial activity, [3H]-hypoxanthine incorporation (LSHTM). The format is cell-based. The settings on record: Plasmodium falciparum, 3D7, read-out: P. falciparum IC50 nM, 3D7 (CQ-S).
Data set [9] has as its system P. falciparum FCR3 (CQ-R). The description is as above. The class given is cell-based. The note with it: Plasmodium falciparum.
The test system of data set [10] is P. berghei ANKA. Kind of data set: Oral curative activity against P. berghei ANKA. The class given is in vivo, P. berghei in mice. The settings on record: for Average survival (days) after infection: individual values in brackets.
For data set [11], the system named is P. falciparum IPC5202 (ARM-R). Kind of data set: microbe, parasite or virus in culture. The format is cell-based. The note with it: Plasmodium falciparum, 72 h. The protocol: The strains D10 and 3D7 (CQ-Sensitive), and V1-S (CQ, pyrimethamine and cycloguanil resistant), K1 (CQ and PYR resistant), W2 and FCR3 (CQ-Resistant), TM90C2A (CQ, MQ, PYR and ATQ resistant) and IPC 5202 (MR4-1240, artemisinin-resistant, K13 mutation, and R539T) of Pf were cultured in vitro as described by Trager and Jensen with minor modifications. Briefly, parasites were maintained at 5% hematocrit (human type A-positive red blood cells) in RPMI 1640 (EuroClone, S.p.A. Milan, Italy) medium with the addition of 10% heat inactivate human serum or 1% AlbuMax (In vitrogen, Milan, Italy), 20 mM Hepes and 2 mM glutamine (Euroclone), at 37 °C in a standard gas mixture consisting of 1–3% O2, 5% CO2, and 92–94% N2.
Compounds were dissolved in either water or DMSO and then diluted with medium to achieve the required concentrations (final non-toxic DMSO concentration <1%). Asynchronous cultures of Pf with parasitaemia of 1–1.5% and 1% final hematocrit were aliquoted into 96-well flat-bottom microplates (Corning, Glendale, AZ, USA) with serial dilutions of test compounds and incubated for 72 h at 37 °C. Parasite growth was determined spectrophotometrically (OD650) by measuring the activity of the parasite lactate dehydrogenase (pLDH) according to a modified version of the method of Makler in control and drug-treated cultures.

A further data set relates to P. falciparum W2 (CQ-R). Details: method as in PMID 18538567. The settings on record: 72 h incubation, pLDH method, mean of 3 experiments; cited from earlier work.
Data set [12] has as its system Salmonella typhimurium TA100. The experiment in a line: Bacterial Reverse Mutation Assay. The note with it: Positive Control 1.25 µg/plate, TA 100, with metabolic activation.
Method: (§6) using the preincubation method (30 min, 37°C) with and without phenobarbital-5,6-benzoflavone induced
(§7) MG3 was dissolved in distilled water (H2O) at
(§8) the maximum concentration of 40 mg/mL and tested in a preliminary range-finding test in all strains of
(§9) metabolic activation to determine the toxicity of the compound.
Data set [13] concerns Escherichia coli WP2 uvrA. Kind of data set: Bacterial Reverse Mutation Assay. The settings on record: Positive Control 5 µg/plate, with metabolic activation.
Method: as §6, §7, §8, §9
Data set [14] has as its system Salmonella typhimurium TA98. The experiment in a line: Bacterial Reverse Mutation Assay. The settings on record: Positive Control 1.25 g/plate, TA 98, with metabolic activation.
Method: as §6, §7, §8, §9
A further data set concerns P. yoelii NS. Details: method as in PMID 19284751. The settings on record: oral 4-day test; cited from earlier work.
Data set [15] relates to P. berghei ANKA. Details: method as in PMID 19284751. The note with it: oral 4-day test; cited from earlier work.
Data set [16] has as its system P. falciparum K1 (CQ-R). Details: method as in PMID 17466277. The settings on record: literature value; read-out: IC50 against K1 strain; cited from earlier work.
Where [17] appears, read: K1, read-out: P. falciparum IC50 nM, K1 (CQ-R).
Setting [18] is: FCR3, read-out: P. falciparum IC50 nM, FCR3 (CQ-R).
Where [19] appears, read: 72 h, [3H]-hypoxanthine incorporation, mean of 3 experiments.

Turning to `CC(C)(C)NCc1ccc(Nc2ccnc3cc(Cl)ccc23)cc1O` [NTBI, N-tert-butyl isoquine], the absolute bioavailability in [1] (literature value) is recorded as 68%.

With `CN(C)c1ccc2nc3ccc(=[N+](C)C)cc-3sc2c1` [Methylene Blue, reference compound], the IC50 in data set [2] came to 145 ± 42.6 nM; in data set [3] (3D7, read-out: Pf-3D7 gametocytes IC50 (nM), >95% Stage I-III, luciferase readout, 3D7elo1-pfs16-CBG99) it was 59.6 ± 21.7 nM.

`CCN(CC)CCCC(C)Nc1ccnc2cc(Cl)ccc12` (stereo not shown) [CQ, chloroquine]: the IC50 came to 774 nM in data set [4]; 145 nM in data set [5]; 708 nM in the data set with P. falciparum K1 (CQ-R) [6] (setting [17]); 11700 ± 4120 nM in [2]; 104 ± 34.7 nM in data set [3] (3D7, read-out: Pf-3D7 gametocytes IC50 (nM), >95% Stage I-III); 86.6 nM in the data set with P. vivax field isolates. The IC50 is 252 nM in data set [8] (read-out: P. falciparum IC50 nM, Field Isolates, mean of 10 field isolates, Thai Burmese Border); 16.5 nM in the data set with P. falciparum D10 (CQ-S); 12.1 nM in the data set on P. falciparum 3D7 (CQ-S); 194 nM in data set [9] (setting [18]); 163 nM in data set [11] (read-out: P. falciparum IC50 nM, IPC5202 (ARM-R)); 294 nM in the data set on P. falciparum W2 (CQ-R). Also, the “Mean ∑FIC50 (95% CI)” value in the data set on P. falciparum K1 (CQ-R) [7] (in combination with ASN, K1, IC50 level) is reported as 1.67 (1.44 – 1.90); in the data set on P. falciparum K1 (CQ-R) [7] (in combination with DHA, K1, IC50 level), 1.27 (1.16 – 1.38); in the data set on P. falciparum K1 (CQ-R) [7] (in combination with RKA-182, K1, IC50 level), 1.19 (0.77 – 1.60). The “% Suppression of parasitaemia (on day 4 post infection)” value (from here on “% Suppression of parasitaemia”) with P. berghei ANKA [10] (oral dose 3 x 30 mg/kg) worked out at 99.84%. Also, the “Average survival (days) after infection” value with P. berghei ANKA [10] (oral dose 3 x 30 mg/kg) is recorded as 13 (12, 12, 13, 13, 13) days.

In the case of `Nc1ccc2cc3ccccc3cc2c1` [2-aminoanthracene, reference compound], the “fold increase value (ratio treated/solvent revertant numbers)” value was 5.1 in [12] (I° Exp.); 7.7 in data set [12] (Range finding); 13.0 in data set [13] (I° Exp.); 8.2 in data set [13] (Range finding); 37.2 in data set [14] (I° Exp.); 26.5 in data set [14] (Range finding).

`CCN(CC)CCCNc1ccnc2cc(Cl)ccc12` [AQ13]: the absolute bioavailability in data set [1] (in vivo) is given as 70%.

With `CC(C)(C)NCc1cc(Nc2ccnc3cc(Cl)ccc23)ccc1F` [FAQ4, 4′-Fluoro-N-tert-butylamodiaquine], in the data set on P. yoelii NS, the “ED50 (95% CI) Mean” value is recorded as 7.70 (6.70–8.90) mg/kg and the “ED90 (95% CI) Mean” value is 10.60 (9.40–11.80) mg/kg. In the data set on P. berghei ANKA [15], the “ED50 (95% CI) Mean” value was 5.30 (4.10–6.80) mg/kg and the “ED90 (95% CI) Mean” value is 12.40 (10.7–14.4) mg/kg.

`CCN(CC)Cc1cc(Nc2ccnc3cc(Cl)ccc23)ccc1O` [Amodiaquine, amodiaquine]: in the data set on P. berghei ANKA [10] (oral dose 3 x 10 mg/kg), the “% Suppression of parasitaemia” value was 100% and the “Average survival (days) after infection” value is recorded as 11 (9, 11, 11, 12, 13) days.

For the compound `C[C@H]1[C@@H](O)O[C@@H]2O[C@@]3(C)CC[C@H]4[C@H](C)CC[C@@H]1[C@@]24OO3` [DHA, dihydroartemisinin], the IC50 is 1.8 nM in [4]; 1.4 nM in the data set on P. falciparum K1 (CQ-R) [6] (setting [17]); 3.9 nM with P. falciparum D10 (CQ-S); 3 nM in the data set with P. falciparum 3D7 (CQ-S); 1.23 nM in [9] (setting [18]); 2.2 nM in [11] (read-out: P. falciparum IC50 nM, IPC5202 (ARM-R), 72 h incubation, pLDH method). For the same compound, the IC50 in the data set with P. falciparum W2 (CQ-R) was 2 nM.

As for `Clc1ccc2c(N3CCN(CCCN4CCN(c5ccnc6cc(Cl)ccc56)CC4)CC3)ccnc2c1` [piperaquine], the IC50 with P. falciparum K1 (CQ-R) [16] is 49 nM.

`C[C@H]1[C@H](OC(=O)CCC(=O)O)O[C@@H]2O[C@@]3(C)CC[C@H]4[C@H](C)CC[C@@H]1[C@@]24OO3` [ASN, artesunate]: the IC50 in data set [4] (setting [19]) worked out at 2.7 nM; in data set [5] (setting [19]), 2.6 nM; with P. falciparum K1 (CQ-R) [6] (K1, 72 h, [3H]-hypoxanthine incorporation, mean of 3 experiments, read-out: P. falciparum IC50 nM, K1 (CQ-R)) it was 2.6 nM; in the data set on P. vivax field isolates (mean of 10 field isolates, Thai Burmese Border) it was 2.3 nM; in data set [8] (mean of 10 field isolates, Thai Burmese Border, read-out: P. falciparum IC50 nM, Field Isolates), 4.2 nM; in data set [9] (FCR3, 72 h, [3H]-hypoxanthine incorporation, mean of 3 experiments, read-out: P. falciparum IC50 nM, FCR3 (CQ-R)) it was 2.6 nM. The “% Suppression of parasitaemia” value in the data set on P. berghei ANKA [10] (oral dose 3 x 30 mg/kg) stood at 99.09%. In addition, in the data set with P. berghei ANKA [10] (oral dose 3 x 30 mg/kg), the “Average survival (days) after infection” value was 8 (7, 8, 8, 9, 9) days.
